Measured values: publication PMC10762177, “Novel betulin derivatives as multidrug reversal agents targeting P-glycoprotein” (Scientific Reports, 2024)
“Also recorded” adds a separate entry of the source. Where two headings read alike, the source gives them in different places.

Columns and labels:
K562/Dox cells [1] = test: Doxorubicin resistance reversal assay in K562/Dox (MTT); conditions: for FR (fold reversal): Dox co-administered
Protocol: (§1) Simultaneously, viability controls were run with no addition of the dissolution solvent. The cells were incubated at 37 °C at 5% CO2 for 48 h and the same protocol described above was followed. The potency of the compounds was established by means of the fold reversal (FR) values calculated from dividing the IC50 of Dox alone by the IC50 of Dox with different concentrations of each compound tested.

P-gp [2] = molecular target: T1, P-gp (Homo sapiens, UniProt P08183); conditions: Rho123 accumulation, K562/Dox; cited from earlier work
P-gp [3] = molecular target: T1, P-gp; test: Rhodamine 123 intracellular accumulation assay in K562/Dox (flow cytometry); conditions: for FAR (fluorescence activity ratio): Rho123, K562/Dox; for MEC (minimum effective concentration) / dose-dependent behavior, b: Rho123 accumulation, K562/Dox
MA-104 cells = test system: MA-104 cells; set-up: method as in Delou et al. 2009[44]; conditions: 22 µM; ref Delou et al. 2009[44]; cited from earlier work
K562/Dox cells [4] = test: MTT colorimetric assay, cytotoxicity on resistant K562/Dox; type: cell-based; conditions: MTT, K562/Dox; for IC50: 48 h, read-out: IC50 K562/Dox
Protocol: This colorimetric technique is based on the ability of viable cells to capture MTT and reduce it through the mitochondrial enzyme succinic dehydrogenase to its insoluble form, formazan crystals. The target compounds dissolved in DMSO (0.5% v/v as final concentration which was non-toxic to cells) at a maximum concentration of 50 µM were exposed to 5 × 10^4 cells distributed in a 96-well plate and incubated for 48 h. […] After this time, the plate was centrifuged at 2000 rpm for 10 min, and 100 µL of DMSO was added to dissolve the formazan crystals formed. Absorbance (Abs) was read at a wavelength of 595 nm in an iMark microplate reader (Bio-Rad, USA). The percentages of cytotoxicity were determined as compared to DMSO treated control cells, which were considered 100% viable as showing the same level of growth as the untreated cells.

K562 cells [5] = test: MTT colorimetric assay, cytotoxicity on sensitive K562; type: cell-based; conditions: for IC50: MTT, 48 h, K562
Protocol: This colorimetric technique is based on the ability of viable cells to capture MTT and reduce it through the mitochondrial enzyme succinic dehydrogenase to its insoluble form, formazan crystals. […] After this time, the plate was centrifuged at 2000 rpm for 10 min, and 100 µL of DMSO was added to dissolve the formazan crystals formed. Absorbance (Abs) was read at a wavelength of 595 nm in an iMark microplate reader (Bio-Rad, USA).

K562 cells [6] = test: Doxorubicin resistance reversal assay in K562 (MTT); type: cell-based; conditions: K562, 1.56 µM
Protocol: as §1

[7] = test system: peripheral blood mononuclear cells (PBMC); test: Cytotoxicity on peripheral blood mononuclear cells (MTT); type: cell-based, human; conditions: MTT, 48 h, up to 50 µM
Protocol: (§2) . PBMC were isolated by the Ficoll-Hypaque density gradient centrifugation technique of fresh heparinized blood from healthy human volunteers. The protocol was previously approved by the Catholic University of Córdoba Research Ethics Board. Signed informed consents were obtained from donors. All methods were performed in accordance with the relevant guidelines and regulations. Briefly, 1 × 10^5 cells/well in a 96-well plate were incubated with 10 µg/mL PHA, in the presence of the corresponding concentrations of the compounds or 0.5% v/v DMSO (negative control) for 48 h, and processed as above described for the MTT method. The percentages of inhibition on cell proliferation were determined by comparison with negative controls, and the corresponding IC50 values were calculated from the best fit of the concentration-dependent inhibition curves in GraphPad Prism 7.

erythrocytes = test: Erythrocyte hemolysis assay; type: cell-based, human; conditions: maximum tested concentration of 50 µM, 1 h
Protocol: For the erythrocyte hemolysis assay, the red blood cell suspension was obtained from fresh heparinized blood collected from healthy human volunteer donors, without receiving any treatment. The blood sample was centrifuged at 2,500 rpm for 10 min at 4 °C. The supernatant was discarded, and the red blood cell pellet was subjected to two consecutive washes with sterile PBS, using the same centrifugation conditions. An aliquot of the pellet obtained was resuspended in PBS (3% v/v). The compounds were incubated at decreasing concentrations starting from 50 µM with the suspension at 37 °C for 1 h. Controls with 1% DMSO and no solvent were included.

K562 cells [8] = test: Doxorubicin intracellular accumulation assay in K562 (flow cytometry); conditions: K562, versus negative control
K562 cells [9] = test: Rhodamine 123 intracellular accumulation assay in K562 (flow cytometry); conditions: for Rho123 accumulation in K562: K562, maximum concentration assayed
P-gp [10] = molecular target: T1, P-gp; test: Doxorubicin intracellular accumulation assay in K562/Dox (flow cytometry)
[11] = Cytotoxicity on peripheral blood mononuclear cells (MTT); type: cell-based, human; conditions: human
Protocol: as §2

P-gp [12] = molecular target: T1, P-gp
P-gp [13] = molecular target: T1, P-gp; set-up: MDR phenotype mainly characterized by the overexpression of ABCB1/P-gp; endogenous in cells; host or cells: K562/Dox (formerly Lucena 1), drug-selected and kept under 60 nM Dox; parental K562 used as the low-P-gp control; conditions: cited from earlier work

T1 sequence (P08183 whole entry): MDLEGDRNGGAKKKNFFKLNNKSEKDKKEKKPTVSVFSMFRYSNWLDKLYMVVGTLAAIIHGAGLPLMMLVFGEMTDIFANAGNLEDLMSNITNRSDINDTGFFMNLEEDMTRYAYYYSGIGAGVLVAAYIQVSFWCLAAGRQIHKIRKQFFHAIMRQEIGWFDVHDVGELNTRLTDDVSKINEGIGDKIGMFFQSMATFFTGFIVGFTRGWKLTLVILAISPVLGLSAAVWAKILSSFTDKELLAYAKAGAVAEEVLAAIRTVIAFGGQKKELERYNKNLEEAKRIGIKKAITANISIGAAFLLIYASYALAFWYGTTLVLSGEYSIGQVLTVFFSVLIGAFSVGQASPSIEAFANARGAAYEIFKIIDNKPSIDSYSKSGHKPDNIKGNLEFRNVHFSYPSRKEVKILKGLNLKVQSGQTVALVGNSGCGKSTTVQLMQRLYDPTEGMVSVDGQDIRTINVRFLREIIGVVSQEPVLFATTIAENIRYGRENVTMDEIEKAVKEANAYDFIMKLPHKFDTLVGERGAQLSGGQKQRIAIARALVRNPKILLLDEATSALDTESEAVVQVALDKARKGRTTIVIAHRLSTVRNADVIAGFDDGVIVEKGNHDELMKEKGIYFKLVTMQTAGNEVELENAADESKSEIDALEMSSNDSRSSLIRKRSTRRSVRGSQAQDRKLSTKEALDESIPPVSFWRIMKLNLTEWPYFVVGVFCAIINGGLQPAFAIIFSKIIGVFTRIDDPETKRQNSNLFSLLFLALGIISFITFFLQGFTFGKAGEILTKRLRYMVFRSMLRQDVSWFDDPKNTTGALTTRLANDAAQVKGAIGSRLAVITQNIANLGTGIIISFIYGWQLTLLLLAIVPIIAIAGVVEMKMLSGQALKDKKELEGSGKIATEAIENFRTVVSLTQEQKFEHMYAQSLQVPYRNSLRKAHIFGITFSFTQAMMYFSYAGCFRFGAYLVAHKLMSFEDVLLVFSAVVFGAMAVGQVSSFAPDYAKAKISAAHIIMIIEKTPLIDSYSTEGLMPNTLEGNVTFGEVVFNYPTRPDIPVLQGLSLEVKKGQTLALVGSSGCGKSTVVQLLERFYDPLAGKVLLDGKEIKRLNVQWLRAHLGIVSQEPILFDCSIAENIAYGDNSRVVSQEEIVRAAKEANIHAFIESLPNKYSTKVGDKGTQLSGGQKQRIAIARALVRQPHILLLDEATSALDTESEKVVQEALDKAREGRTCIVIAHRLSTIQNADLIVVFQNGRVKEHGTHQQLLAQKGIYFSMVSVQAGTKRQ

| SMILES | MEC, Dox resistance reversal (K562/Dox cells [1]; K562/Dox) [µM] | FAR (fluorescence activity ratio) (P-gp [3]; 0.78 µM) | FAR (fluorescence activity ratio) (P-gp [3]; 1.56 µM) | FAR (fluorescence activity ratio) (P-gp [3]; 3.12 µM) | FAR (fluorescence activity ratio) (P-gp [3]; 6.25 µM) | FAR (fluorescence activity ratio) (P-gp [3]; 25 µM) | FAR (fluorescence activity ratio) (P-gp [3]; 50 µM) | IC50 (K562/Dox cells [4]; Homo sapiens, K562, 48 h) [µM] | IC50 (K562 cells [5]; Homo sapiens, K562, 48 h) [µM] | MEC, Dox accumulation (P-gp [10]) [µM] | MEC (minimum effective concentration) (P-gp [3]) [µM] | also measured |
| --- | --- | --- | --- | --- | --- | --- | --- | --- | --- | --- | --- | --- |
| C=C(C)[C@@H]1CC[C@]2(CO)CC[C@]3(C)[C@H](CC[C@@H]4[C@@]5(C)CC[C@H](O)C(C)(C)[C@@H]5CC[C@]43C)[C@@H]12 [Compound 1, betulin] | 0.39 | 1.01 ± 0.07 | 1.12 ± 0.03 | 1.23 ± 0.04 | 1.32 ± 0.06 | 2.34 ± 0.19 | 2.77 ± 0.36 | – | – | – | – | MEC (minimum effective concentration) (P-gp [2]): 1.56 µM; FAR (fluorescence activity ratio) (P-gp [3]; 12.50 µM): 1.80 ± 0.08 |
| C=C(C)[C@@H]1CC[C@]2(C(=O)O)CC[C@]3(C)[C@H](CC[C@@H]4[C@@]5(C)CC[C@H](O)C(C)(C)[C@@H]5CC[C@]43C)[C@@H]12 [Compound 2, betulinic acid, reference compound] | – | – | – | – | – | – | 1.05 ± 0.04 | – | – | – | – | Rho123 accumulation in MA-104 cells (MA-104 cells): not to alter Rho123 accumulation |
| C=C(C)[C@@H]1CC[C@]2(COC(=O)NCCc3cc(OC)c(OC)c(OC)c3)CC[C@]3(C)[C@H](CC[C@@H]4[C@@]5(C)CC[C@H](O)C(C)(C)[C@@H]5CC[C@]43C)[C@@H]12 [Compound 6g] | 0.024 | 1.33 ± 0.14 | 1.61 ± 0.23 | 2.05 ± 0.36 | 2.62 ± 0.49 | 3.47 ± 0.61 | 4.02 ± 0.70 | > 50 | > 50 | 0.098 | 0.19 | potency for restoring the cytotoxicity of Dox relative to compound 1 (times) (K562/Dox cells [1]; K562/Dox): 16; FR (fold reversal) (K562/Dox cells [1]; K562/Dox, 0.024 µM): 1.17 ± 0.05; FR (fold reversal) (K562/Dox cells [1]; K562/Dox, 0.78 µM): 3.98 ± 0.71; FR (fold reversal) (K562/Dox cells [1]; K562/Dox, 1.56 µM): 5.37 ± 1.36; reversal effect on parental K562 (K562 cells [6]): slight increase in Dox toxicity; cytotoxicity on PBMC [7]: devoid of toxic effects; also recorded: did not reveal cytotoxicity; erythrocyte hemolysis (erythrocytes): devoid of toxic effects; also recorded: Neither compound induced erythrocyte hemolysis; Dox accumulation in K562 (K562 cells [8]): did not increase Dox accumulation; Rho123 accumulation in K562 (K562 cells [9]): did not increase Rho123 accumulation; FAR, Dox accumulation (P-gp [10]; 50 µM): 1.26 ± 0.02; FAR (fluorescence activity ratio) (P-gp [3]; 0.098 µM): 1.00 ± 0.04; FAR (fluorescence activity ratio) (P-gp [3]; 0.19 µM): 1.09 ± 0.03; dose-dependent behavior, b (P-gp [3]): 64.49 |
| C=C(C)[C@@H]1CC[C@]2(COC(=O)N3CCN(C)CC3)CC[C@]3(C)[C@H](CC[C@@H]4[C@@]5(C)CC[C@H](O)C(C)(C)[C@@H]5CC[C@]43C)[C@@H]12 [Compound 6i] | 0.19 | 1.30 ± 0.06 | 1.41 ± 0.14 | 1.71 ± 0.06 | 2.04 ± 0.05 | – | – | 33.91 ± 0.09 | 19.1 | 0.098 | 0.39 | toxicity (K562/Dox cells [4]; 50 μM): more than 55%; toxicity (K562 cells [5]; 50 μM, K562, MTT): more than 55%; IC50 (K562 cells [5]): 19.1 ± 0.87 µM; potency for restoring the cytotoxicity of Dox relative to compound 1 (times) (K562/Dox cells [1]): nearly twice; FR (fold reversal) (K562/Dox cells [1]; K562/Dox, 0.19 µM): 1.39 ± 0.07; FR (fold reversal) (K562/Dox cells [1]; K562/Dox, 0.78 µM): 1.63 ± 0.06; FR (fold reversal) (K562/Dox cells [1]; K562/Dox, 1.56 µM): 2.69 ± 0.39; reversal effect on parental K562 (K562 cells [6]): did not show a reversal effect; IC50 at 48 h [11]: 26.4 ± 2.88 µM; viability at 48 h, 50 µM [11]: 64%; erythrocyte hemolysis (erythrocytes): devoid of toxic effects; also recorded: Neither compound induced erythrocyte hemolysis; Dox accumulation in K562 (K562 cells [8]): did not increase Dox accumulation; Rho123 accumulation in K562 (K562 cells [9]): did not increase Rho123 accumulation; FAR, Dox accumulation (P-gp [10]; 25 µM): 1.27 ± 0.03; FAR (fluorescence activity ratio) (P-gp [3]; 0.19 µM): 1.08 ± 0.05; dose-dependent behavior, b (P-gp [3]): 40.14 |
| C=C(C)[C@@H]1CC[C@]2(COC(=O)N3CCc4cc(OC)c(OC)cc4C3)CC[C@]3(C)[C@H](CC[C@@H]4[C@@]5(C)CC[C@H](O)C(C)(C)[C@@H]5CC[C@]43C)[C@@H]12 [Compound 6m] | – | – | 1.03 ± 0.12 | 1.17 ± 0.03 | 1.27 ± 0.09 | 1.52 ± 0.09 | 2.06 ± 0.15 | > 50 | > 50 | – | 3.12 | FAR (fluorescence activity ratio) (P-gp [3]; 12.50 µM): 1.32 ± 0.14 |
| COc1cc2c(cc1OC)CN(CCc1ccc(NC(=O)c3cc(OC)c(OC)cc3NC(=O)c3cnc4ccccc4c3)cc1)CC2 [Tariquidar, tariquidar, reference compound] | – | 1.12 ± 0.03 | – | – | – | – | – | 2.2 | 2.4 | 0.39 | 0.78 | IC50 (K562/Dox cells [4]): 2.25 ± 0.28 µM; IC50 (K562 cells [5]): 2.38 ± 0.32 µM; FAR (fluorescence activity ratio) (P-gp [12]; 1.56 µM): 1.22 ± 0.05; FAR (fluorescence activity ratio) (P-gp [12]; 3.12 µM): 1.14 ± 0.03; FAR (fluorescence activity ratio) (K562 cells [9]; Rho123, K562, 3.12 µM): 0.82 ± 0.11 |
| C=C(C)[C@@H]1CC[C@]2(C)CC[C@]3(C)[C@H](CC[C@@H]4[C@@]5(C)CC[C@H](O)C(C)(C)[C@@H]5CC[C@]43C)[C@@H]12 [lupeol] | – | – | – | – | – | – | – | – | – | – | – | effective concentration, P-gp inhibition (P-gp [13]): 100 µM |
| CC1(C)CC[C@]2(C(=O)O)CC[C@]3(C)C(=CC[C@@H]4[C@@]5(C)CC[C@H](O)C(C)(C)[C@@H]5CC[C@]43C)[C@@H]2C1 [oleanolic acid] | – | – | – | – | – | – | – | – | – | – | – | effective concentration, P-gp inhibition (P-gp [13]): 2 µM |
